Data reported in patent US4742069A, “Sulfonamide containing dihydropyridine derivatives, intermediates and medicinal use” (Hoffmann-La Roche Inc., priority 1984, dated 1988).

What was measured:
[1] = test system: ^3 H-nifedipine (or ^3 H-nitrendipine) binding, rabbit or guinea pig heart membranes; assay: 3H-Nifedipine binding determinations; details: for A: % max. inhib. (maximum inhibition of specific binding): reference compound nifedipine established as 100%
Description: A. ^3 H-Nifedipine binding determinations:
The determination is carried out on homogenates or on partially-cleaned membranes of rabbit or guinea pig heart. The reaction mixture (0.3 ml) consists of 0.2-0.8 mg of membrane protein, 1 nM of ^3 H-nifedipine (or 0.25 nM of ^3 H-nitrendipine) and various concentrations of the test substances. The incubation lasts 30 minutes at 25° C. or 37° C. and is stopped by dilution with the incubation buffer; a filtration is subsequently carried out. The filter-bound radioactivity is measured with a scintillation counter. Specific binding (i.e. receptor-bound) is defined as the difference between total and unspecific-bound radioactivity. The unspecific binding is determined in the presence of an excess of non-radioactive nifedipine (1 μM).
The activity (potency) of a compound in this test is defined by the IC50 and % maximum inhibition values (% max. inhibition). The IC50 is the substance concentration (in mol/l) which produces a half-maximum inhibition of the specific ^3 H-nifedipine (or ^3 H-nitrendipine) binding. In the table compound A has an IC50 in mol/l, of 3.0.10^-8 which means 3.0×10^-8. The maximum inhibition of the specific binding is given by the % maximum inhibition value; this value is established as 100% for the reference compound nifedipine. Both parameters are extrapolated from a concentration-binding curve.

[2] = test system: KCl contracture of coronary artery strips of dogs (tension-dependent calcium channel); assay: Coronary artery strips of dogs, relaxation of KCl contracture; type: cell-based, dog; details: Canis lupus familiaris; KCl 84.7 mM, 37° C.; read-out: B: IC50 (half-maximum relaxation of KCl contracture)
Description: B. Coronary artery strips of dogs:
In this experiment spiral strips (2-2.5 mm wide and 10 mm long) of coronary arteries of dogs are cut and hung up in an organ chamber under an initial tension of 1.5 g. These strips are pre-incubated for a duration of about 1 to 2 hours in Krebs-Henseleit buffer solution which is gassed with Oxycarbon (a mixture of 95% oxygen and 5% carbon dioxide) at 37° C. The relaxing activity of one of these substances is subsequently tested on a KCl (84.7 mM) contracture by the addition of increasing concentrations of the test substance to the organ chamber. The calcium channel-blocking activity of the test substances can therefore be established, as the KCl contracture occurs exclusively by means of calcium flow through the tension-dependent calcium channel.
The activity of a test substance in this test is given by the IC50 value. This value is defined as the substance concentration (in mol/l) which produces a half-maximum relaxation of a KCl contracture. This value is also extrapolated from the resulting concentration-activity curve.

narcotized dog = assay: Hemodynamic parameters in the narcotized dog; type: in vivo
Source text: C. Hemodynamic parameters in the narcotized dog:
The 4 most important measurement parameters (with respective measurement units) of the hemodynamic experiment are: (1) CBF: Coronary Blood Flow (in ml/min)--the velocity of blood flow through the coronary arteries; (2) HR: heart rate (in beats/min)--the heart frequency; (3) BP: blood pressure (in mm Hg); and (4) dp/dt: rate of increase in left ventricular pressure (in mm Hg/sec) as a measurement of the contractility force of the heart. The values are given as the % maximum variation from the initial value (Δ%) and the duration in minutes of this variation (t) per dosage administered.
There is thus obtained not only an overall picture of the activity of the substance, but also an estimation as to the potential selectivity for a specific part of the circulatory system in the entire organism. After the administration of an anesthetic, the dog is intubated and respired artificially. Blood pH, pCO2, pO2 and hemoglobin are measured hourly with a blood-gas analyzer. The blood pressure (systolic and diastolic) is measured with a probe in the aorta abdominalis. The heart frequency is recorded by means of a tachometer, which is disengaged from the pressure pulse. For the other measurements the heart must first be opened in order that a probe can be inserted in the left ventricle (heart chamber) for the pressure measurements (dp/dt). The coronary blood flow is measured with a flowing probe in the left coronary artery (descendens).
This allows the prediction that they are useful as agents in the control or prevention of angina pectoris, ischemia, high blood pressure and migraine.

CC1=C(C(=O)CS(=O)(=O)NC(C)C)C(c2cc([N+](=O)[O-])ccc2Cl)C(C(=O)OC(C)C)=C(C)N1 (centres unmarked) [D, 4-(2-chloro-5-nitrophenyl)-1,4-dihydro-5-[(isopropylsulfamoyl)acetyl]-2,6-dimethylnicotinic acid isopropyl ester]
A: % max. inhib. (maximum inhibition of specific binding) [1]: 100% | IC50 [2]: 0.82 nM | BP blood pressure, duration of variation (t) (narcotized dog; 0.03 mg/kg p.o.): > 60 min | BP blood pressure, maximum variation from initial value (Δ%) (narcotized dog; 0.03 mg/kg p.o.): -9% | CBF coronary blood flow, duration of variation (t) (narcotized dog; 0.03 mg/kg p.o.): > 120 min | CBF coronary blood flow, maximum variation from initial value (Δ%) (narcotized dog; 0.03 mg/kg p.o.): 68% | HR heart rate, duration of variation (t) (narcotized dog; 0.03 mg/kg p.o.): 60 min | HR heart rate, maximum variation from initial value (Δ%) (narcotized dog; 0.03 mg/kg p.o.): -5% | dp/dt rate of increase in left ventricular pressure, maximum variation from initial value (Δ%) (narcotized dog; 0.03 mg/kg p.o.): 75% | dp/dt, duration of variation (t) (narcotized dog; 0.03 mg/kg p.o.): 90 min

CCNS(=O)(=O)CC(=O)C1=C(C)NC(C)=C(C(=O)OC(C)C)C1c1cccc([N+](=O)[O-])c1 (centres unmarked) [A, 5-[(Ethylsulfamoyl)acetyl]-1,4-dihydro-2,6-dimethyl-4-(3-nitrophenyl)nicotinic acid isopropyl ester]
IC50 ([1]; read-out: IC50 (half-maximum inhibition of specific 3H-nifedipine binding), as repeated in the text): 30 nM | A: % max. inhib. (maximum inhibition of specific binding) [1]: 100% | IC50 [2]: 6.8 nM | BP blood pressure, duration of variation (t) (narcotized dog; 0.03 mg/kg p.o.): > 60 min | BP blood pressure, maximum variation from initial value (Δ%) (narcotized dog; 0.03 mg/kg p.o.): -13% | CBF coronary blood flow, duration of variation (t) (narcotized dog; 0.03 mg/kg p.o.): 90 min | CBF coronary blood flow, maximum variation from initial value (Δ%) (narcotized dog; 0.03 mg/kg p.o.): 98% | HR heart rate, duration of variation (t) (narcotized dog; 0.03 mg/kg p.o.): 60 min | HR heart rate, maximum variation from initial value (Δ%) (narcotized dog; 0.03 mg/kg p.o.): -11% | dp/dt rate of increase in left ventricular pressure, maximum variation from initial value (Δ%) (narcotized dog; 0.03 mg/kg p.o.): 37% | dp/dt, duration of variation (t) (narcotized dog; 0.03 mg/kg p.o.): 90 min

COC(=O)C1=C(C)NC(C)=C(C(=O)OC)C1c1ccccc1[N+](=O)[O-] [nifedipine, reference compound]
A: % max. inhib. (maximum inhibition of specific binding) [1]: 100%

CC1=C(C(=O)CS(=O)(=O)NC(C)C)C(c2cc(Cl)ccc2Cl)C(C(=O)OC(C)C)=C(C)N1 (centres unmarked) [E, 4-(2,5-dichlorophenyl)-1,4-dihydro-5-[(isopropylsulfamoyl)acetyl]-2,6-dimethylnicotinic acid isopropyl ester]
A: % max. inhib. (maximum inhibition of specific binding) [1]: 100% | IC50 [2]: 6.6 nM | BP blood pressure, duration of variation (t) (narcotized dog; 0.03 mg/kg p.o.): > 120 min | BP blood pressure, maximum variation from initial value (Δ%) (narcotized dog; 0.03 mg/kg p.o.): -16% | CBF coronary blood flow, duration of variation (t) (narcotized dog; 0.03 mg/kg p.o.): 70 min | CBF coronary blood flow, maximum variation from initial value (Δ%) (narcotized dog; 0.03 mg/kg p.o.): 104% | HR heart rate, duration of variation (t) (narcotized dog; 0.03 mg/kg p.o.): 120 min | HR heart rate, maximum variation from initial value (Δ%) (narcotized dog; 0.03 mg/kg p.o.): -14% | dp/dt rate of increase in left ventricular pressure, maximum variation from initial value (Δ%) (narcotized dog; 0.03 mg/kg p.o.): 65% | dp/dt, duration of variation (t) (narcotized dog; 0.03 mg/kg p.o.): 90 min

CCCOCCOC(=O)C1=C(C)NC(C)=C(C(=O)CS(=O)(=O)NC(C)C)C1c1cccc([N+](=O)[O-])c1 (centres unmarked) [F, 1,4-dihydro-5-[(isopropylsulfamoyl)acetyl]-2,6-dimethyl-4-(3-nitrophenyl)nicotinic acid 2-propoxyethyl ester]
A: % max. inhib. (maximum inhibition of specific binding) [1]: 99% | IC50 [2]: 0.6 nM | BP blood pressure, duration of variation (t) (narcotized dog; 0.03 mg/kg p.o.): > 60 min | BP blood pressure, maximum variation from initial value (Δ%) (narcotized dog; 0.03 mg/kg p.o.): -11% | CBF coronary blood flow, duration of variation (t) (narcotized dog; 0.03 mg/kg p.o.): 120 min | CBF coronary blood flow, maximum variation from initial value (Δ%) (narcotized dog; 0.03 mg/kg p.o.): 56% | HR heart rate, duration of variation (t) (narcotized dog; 0.03 mg/kg p.o.): 16 min | HR heart rate, maximum variation from initial value (Δ%) (narcotized dog; 0.03 mg/kg p.o.): -5% | dp/dt rate of increase in left ventricular pressure, maximum variation from initial value (Δ%) (narcotized dog; 0.03 mg/kg p.o.): 34% | dp/dt, duration of variation (t) (narcotized dog; 0.03 mg/kg p.o.): 60 min

CNS(=O)(=O)CC(=O)C1=C(C)NC(C)=C(C(=O)OC(C)C)C1c1cccc([N+](=O)[O-])c1 (centres unmarked) [B, 1,4-dihydro-2,6-dimethyl-5-[(methylsulfamoyl)acetyl]-4-(3-nitrophenyl)nicotinic acid isopropyl ester]
A: % max. inhib. (maximum inhibition of specific binding) [1]: 94% | IC50 [2]: 16 nM | BP blood pressure, duration of variation (t) (narcotized dog; 0.03 mg/kg p.o.): > 90 min | BP blood pressure, maximum variation from initial value (Δ%) (narcotized dog; 0.03 mg/kg p.o.): -8% | CBF coronary blood flow, duration of variation (t) (narcotized dog; 0.03 mg/kg p.o.): > 90 min | CBF coronary blood flow, maximum variation from initial value (Δ%) (narcotized dog; 0.03 mg/kg p.o.): 120% | HR heart rate, maximum variation from initial value (Δ%) (narcotized dog; 0.03 mg/kg p.o.): 0% | dp/dt rate of increase in left ventricular pressure, maximum variation from initial value (Δ%) (narcotized dog; 0.03 mg/kg p.o.): 10% | dp/dt, duration of variation (t) (narcotized dog; 0.03 mg/kg p.o.): > 90 min

CNS(=O)(=O)CC(=O)C1=C(C)NC(C)=C(C(=O)OCC(F)(F)F)C1c1cccc([N+](=O)[O-])c1 (centres unmarked) [C, 1,4-dihydro-2,6-dimethyl-5-[(methylsulfamoyl)acetyl]-4-(3-nitrophenyl)nicotinic acid 2,2,2-trifluoroethyl ester]
A: % max. inhib. (maximum inhibition of specific binding) [1]: 100% | IC50 [2]: 9.5 nM | BP blood pressure, duration of variation (t) (narcotized dog; 0.1 mg/kg p.o.): > 180 min | BP blood pressure, maximum variation from initial value (Δ%) (narcotized dog; 0.1 mg/kg p.o.): -16% | CBF coronary blood flow, duration of variation (t) (narcotized dog; 0.1 mg/kg p.o.): 180 min | CBF coronary blood flow, maximum variation from initial value (Δ%) (narcotized dog; 0.1 mg/kg p.o.): 88% | HR heart rate, duration of variation (t) (narcotized dog; 0.1 mg/kg p.o.): 120 min | HR heart rate, maximum variation from initial value (Δ%) (narcotized dog; 0.1 mg/kg p.o.): +2% | dp/dt rate of increase in left ventricular pressure, maximum variation from initial value (Δ%) (narcotized dog; 0.1 mg/kg p.o.): 33% | dp/dt, duration of variation (t) (narcotized dog; 0.1 mg/kg p.o.): 180 min

CC1=C(C(=O)CS(=O)(=O)NC(C)C)[C@H](c2cccc([N+](=O)[O-])c2)C(C(=O)O[C@@H](C)c2ccccc2)=C(C)N1 [G, (S)-1,4-dihydro-5-[(isopropylsulfamoyl)acetyl]-2,6-dimethyl-4-(3-nitrophenyl)nicotinic acid (S)-1-phenylethyl ester]
A: % max. inhib. (maximum inhibition of specific binding) [1]: 100% | IC50 [2]: 7.4 nM | BP blood pressure, duration of variation (t) (narcotized dog; 0.03 mg/kg p.o.): > 120 min | BP blood pressure, maximum variation from initial value (Δ%) (narcotized dog; 0.03 mg/kg p.o.): -36% | CBF coronary blood flow, duration of variation (t) (narcotized dog; 0.03 mg/kg p.o.): > 120 min | CBF coronary blood flow, maximum variation from initial value (Δ%) (narcotized dog; 0.03 mg/kg p.o.): 57% | HR heart rate, duration of variation (t) (narcotized dog; 0.03 mg/kg p.o.): > 120 min | HR heart rate, maximum variation from initial value (Δ%) (narcotized dog; 0.03 mg/kg p.o.): -13% | dp/dt rate of increase in left ventricular pressure, maximum variation from initial value (Δ%) (narcotized dog; 0.03 mg/kg p.o.): 29% | dp/dt, duration of variation (t) (narcotized dog; 0.03 mg/kg p.o.): > 120 min
